Assay results: patent US12186283B2, “Bismuth-thiol compositions and methods of use” (Microbion Corporation, priority 2018, dated 2025)
Marks after values point to notes of the source that are not given here.

Legend:
Format in all cases: cell-based
Candida auris = test: Broth microdilution MIC, yeast (Example 13)
Candida glabrata = test: Broth microdilution MIC, yeast (Example 13)
Candida albicans = test: Broth microdilution MIC, yeast (Example 13)
Candida krusei = test: Broth microdilution MIC, yeast (Example 13)
Aspergillus spp. = test: Broth microdilution MIC/MEC, mold (Example 13)

CC[C@H](C)C[C@H](C)CCCCCCCCC(=O)N[C@H]1C[C@@H](O)[C@@H](NCCN)NC(=O)[C@@H]2[C@@H](O)CCN2C(=O)[C@H]([C@H](O)CCN)NC(=O)[C@H]([C@H](O)[C@@H](O)c2ccc(O)cc2)NC(=O)[C@@H]2C[C@@H](O)CN2C(=O)[C@H]([C@@H](C)O)NC1=O [CASP]
MIC2 (50% inhibition) (Candida auris; C. auris MMX 9862, Susceptible): 0.12 µg/mL | MIC2 (50% inhibition) (Candida auris; C. auris MMX 9863, FLU-R, VORI-R): 0.12^b μg/mL | MIC2 (50% inhibition) (Candida auris; C. auris MMX 9864, FLU-R, VORI-R): 0.25^b μg/mL | MIC2 (50% inhibition) (Candida auris; C. auris MMX 9865, FLU-R, VORI-R): 0.25^b μg/mL | MIC2 (50% inhibition) (Candida auris; C. auris MMX 9866, FLU-R, VORI-R): 0.12^b μg/mL | MIC2 (50% inhibition) (Candida auris; C. auris MMX 9867, FLU-R, VORI-R): 0.12 µg/mL | MIC2 (50% inhibition) (Candida auris; C. auris MMX 9868, FLU-R, VORI-R): 0.25 µg/mL | MIC2 (50% inhibition) (Candida auris; C. auris MMX 9869, FLU-R, VORI-R): 0.25 µg/mL | MIC2 (50% inhibition) (Candida auris; C. auris MMX 9870, FLU-R, VORI-R): 0.25 µg/mL | MIC2 (50% inhibition) (Candida auris; C. auris MMX 9871, Susceptible): 0.25^b μg/mL | MIC2 (50% inhibition) (Candida glabrata; Candida glabrata ATCC 90030, Susceptible): 0.12 µg/mL | MIC2 (50% inhibition) (Candida glabrata; Candida glabrata ATCC MYA-2950, Susceptible): 0.12 µg/mL | MIC2 (50% inhibition) (Candida glabrata; Candida glabrata MMX 7087, Susceptible): 0.12 µg/mL | MIC2 (50% inhibition) (Candida glabrata; Candida glabrata MMX 7093, FLU-R): 0.12 µg/mL | MIC2 (50% inhibition) (Candida glabrata; Candida glabrata MMX 7101, FLU-R): 0.12 µg/mL | MIC2 (50% inhibition) (Candida glabrata; Candida glabrata MMX 7103, CASP-R, MICA-R): >8 µg/mL | MIC2 (50% inhibition) (Candida glabrata; Candida glabrata MMX 7111, Susceptible): 0.12 µg/mL | MIC2 (50% inhibition) (Candida glabrata; Candida glabrata MMX 7285, CASP-R, MICA-R): 0.5 µg/mL | MIC2 (50% inhibition) (Candida glabrata; Candida glabrata MMX 7307, CASP-R, MICA-R, FLU-R): >8 µg/mL | MIC2 (50% inhibition) (Candida glabrata; Candida glabrata MMX 7549, Susceptible): 0.06 µg/mL | MIC2 (50% inhibition) (Candida albicans; Candida albicans ATCC 90028, Susceptible, 24 hr): 0.06 µg/mL | MIC2 (50% inhibition) (Candida albicans; Candida albicans ATCC 204276, MICA-R, 24 hr): 0.25 µg/mL | MIC2 (50% inhibition) (Candida albicans; Candida albicans ATCC MYA-2732, FLU-R, VORI-I, 24 hr): 0.06 µg/mL | MIC2 (50% inhibition) (Candida albicans; Candida albicans MMX 7053, Susceptible, 24 hr): 0.06 µg/mL | MIC2 (50% inhibition) (Candida albicans; Candida albicans MMX 7067, FLU-R, VORI-R, 24 hr): 0.06 µg/mL | MIC2 (50% inhibition) (Candida albicans; Candida albicans MMX 7403, Susceptible, 24 hr): 0.06 µg/mL | MIC2 (50% inhibition) (Candida albicans; Candida albicans MMX 7424, CASP-R, MICA-R, 24 hr): 8 µg/mL | MIC2 (50% inhibition) (Candida albicans; Candida albicans MMX 7430, Susceptible, 24 hr): 0.06 µg/mL | MIC2 (50% inhibition) (Candida albicans; Candida albicans MMX 7437, FLU-I, 24 hr): 0.06 µg/mL | MIC2 (50% inhibition) (Candida albicans; Candida albicans MMX 7445, FLU-R, VORI-R, result after 48 hr incubation (insufficient growth at 24 hr)): 0.06^a μg/mL | MIC2 (50% inhibition) (Candida krusei; C. krusei ATCC 6258, MICA-I): 0.25 µg/mL | MIC2 (50% inhibition) (Candida krusei; C. krusei ATCC 14243, Susceptible): 0.012 µg/mL | MIC2 (50% inhibition) (Candida krusei; C. krusei ATCC 96685, Susceptible): 0.12 µg/mL | MIC2 (50% inhibition) (Candida krusei; C. krusei MMX 7125, Susceptible): 0.25 µg/mL | MIC2 (50% inhibition) (Candida krusei; C. krusei MMX 7128, Susceptible): 0.25 µg/mL | MIC2 (50% inhibition) (Candida krusei; C. krusei MMX 7141, Susceptible): 0.25 µg/mL | MIC2 (50% inhibition) (Candida krusei; C. krusei MMX 7153, MICA-R): 0.25 µg/mL | MIC2 (50% inhibition) (Candida krusei; C. krusei MMX 7155, Susceptible): 0.25 µg/mL | MIC2 (50% inhibition) (Candida krusei; C. krusei MMX 7563, Susceptible): 0.12 µg/mL | MIC2 (50% inhibition) (Candida krusei; C. krusei MMX 9878, MICA-I, VORI-I): 0.25 µg/mL | MEC (minimum effective concentration) (Aspergillus spp.; A. flavus ATCC 22546): 0.06 µg/mL | MEC (minimum effective concentration) (Aspergillus spp.; A. flavus ATCC 204304): 0.06 µg/mL | MEC (minimum effective concentration) (Aspergillus spp.; A. flavus MMX 7935): 0.03 µg/mL | MEC (minimum effective concentration) (Aspergillus spp.; A. fumigatus ATCC 204305): 0.25 µg/mL | MEC (minimum effective concentration) (Aspergillus spp.; A. fumigatus ATCC MYA-3626): 0.06 µg/mL | MEC (minimum effective concentration) (Aspergillus spp.; A. fumigatus MMX 5934): 0.12 µg/mL | MEC (minimum effective concentration) (Aspergillus spp.; A. fumigatus MMX 5938, 48 hr only, insufficient growth for 24 hr read): 0.12^b μg/mL | MEC (minimum effective concentration) (Aspergillus spp.; A. fumigatus MMX 5939): 0.12 µg/mL | MEC (minimum effective concentration) (Aspergillus spp.; A. niger ATCC 29508, 48 hr only, insufficient growth for 24 hr read): 0.06^b μg/mL | MEC (minimum effective concentration) (Aspergillus spp.; A. terreus MMX 8229, 48 hr only, insufficient growth for 24 hr read): 0.12^b μg/mL
